Reference: article PMC11473416, “Coumarin-chalcone derivatives as dual NLRP1 and NLRP3 inflammasome inhibitors targeting oxidative stress and inflammation in neurotoxin-induced HMC3 and BE(2)-M17 cell models of Parkinson's disease” (Frontiers in Aging Neuroscience, 2024)
“And” between values parts separate entries of the source, which are not always exact repeats. Equal values may be shown once. Blank lines part the entries; values can stand above or below the compound they belong to.

Columns and labels:
[1] = DPPH free radical scavenging activity; details: 10–160 μM, 30 min, room temperature
Procedure: Stable 1,1-diphenyl-2-picrylhydrazyl (DPPH) radical in ethanol (100 μM; Sigma-Aldrich) was used to measure the antioxidant activity of these LM compounds. After addition of quercetin (positive control) or LM compound (10–160 μM), the mixture was vortexed for 15 s and incubated at room temperature for 30 min. Subsequently, the mixture was measured spectrophotometrically at 517 nm (Multiskan GO microplate spectrophotometer; Thermo Fisher Scientific). The free radical scavenging activity was calculated as the percentage of DPPH discoloration using the formula 1 – (absorbance of sample/absorbance of control) × 100%, with half maximal effective concentration (EC50) calculated using the interpolation method.

[2] = test system: NQO1; assay: Western blot NQO1 in MPP^+-treated BE(2)-M17 cells; format: cell-based, human; details: BE(2)-M17, compound 10 μM + 0.62 mM MPP^+; MPP^+ alone 53%; untreated = 100%
[3] = test system: p-CREB (Ser133); assay: Western blot p-CREB (Ser133) in MPP^+-treated BE(2)-M17 cells; format: cell-based, human; details: BE(2)-M17, compound 10 μM + 0.62 mM MPP^+; MPP^+ alone 83%; untreated = 100%
Procedure: (§1) HMC3 (2 × 10^5/6-well) or BE(2)-M17 (4 × 10^5/6-well) cells were lysed in buffer (composition: 50 mM Tris-HCl pH8.0, 2 mM EDTA pH8.0, 150 mM NaCl, 0.5% sodium deoxycholate, 0.1% SDS, 50 mM NaF, 1% NP40) containing the protease and/or phosphatase inhibitor cocktail (Sigma-Aldrich). After sonication, the lysates were centrifuged (12,000 × g for 10 min at 4°C) and protein concentrations determined (Bradford protein assay; Bio-Rad, Hercules, CA, USA). Aliquots of protein (20 μg) were separated by electrophoresis using 10%−12% SDS–polyacrylamide gel followed by transfer to a polyvinylidene fluoride (PVDF) membrane. […] The immune complexes were detected using horseradish peroxidase (HRP)-conjugated goat anti-mouse or goat anti-rabbit IgG antibody (1:5,000; GeneTex) and chemiluminescent HRP substrate (Millipore, Burlington, MA, USA). Immunoreactive bands were captured (ImageQuant™ LAS 4000, GE Healthcare, Chicago, IL, USA) and quantified (Multi Gauge V3.0 software, Fujifilm, Tokyo, Japan).

[4] = test system: BDNF; assay: Western blot BDNF in MPP^+-treated BE(2)-M17 cells; format: cell-based, human; details: BE(2)-M17, compound 10 μM + 0.62 mM MPP^+; MPP^+ alone 78%; untreated = 100%
Procedure: as §1

[5] = test system: BCL2; assay: Western blot BCL2 in MPP^+-treated BE(2)-M17 cells; format: cell-based, human; details: BE(2)-M17, compound 10 μM + 0.62 mM MPP^+; MPP^+ alone 70%; untreated = 100%
Procedure: as §1

[6] = test system: BE(2)-M17 cells; assay: cytotoxicity MTT assay in BE(2)-M17 cells; format: cell-based, human; details: MPP^+ at 0.62 mM
Procedure: Human HMC3 microglial (CRL-3304) and neuroblastoma BE(2)-M17 (CRL-2267) cells were obtained from American Type Culture Collection. BE(2)-M17 develops a better dopaminergic phenotype than SH-SY5Y when treated with retinoic acid to direct neuronal differentiation (Carvajal-Oliveros et al., [2022]). Cells were routinely maintained in Dulbecco's Modified Eagle Medium-Nutrient Mixture F12 (DMEM-F12) supplemented with 10% fetal bovine serum (FBS; Thermo Fisher Scientific, Waltham, MA, USA) in a 37°C incubator, with 95% relative humidity and 5% CO2 (NuAire, Plymouth, MN, USA).
To evaluate cytotoxicity of LM compounds and MPP^+, HMC3 (1 × 10^4) or BE(2)-M17 (2 × 10^4) cells were plated on 96-well dishes, grown for 20 h, and treated with LM compounds (1–100 μM) or MPP^+ [HMC3: 0–8 mM; BE(2)-M17: 0–5 mM]. Next day, 20 μl of tetrazolium dye 3-(4,5-dimethylthiazol-2-yl)-2,5-diphenyltetrazolium bromide (MTT, 5 mg/ml; Sigma-Aldrich) was added to the cells at 37°C for 3 h. The resulted insoluble purple formazan products were dissolved by lysis buffer (composition: 10% Triton X-100, 0.1 N HCl, 18% isopropanol). The absorbance of the dissolved product at optical density (OD) 570 nm was read by using a FLx800 fluorescence microplate spectrophotometer (Bio-Tek, Winooski, VT, USA). The half maximal inhibitory concentration (IC50) of LM compounds was determined through the construction of a dose-response curve. MPP^+ at 4 mM (HMC3 cell viability: 65%−69%) or 0.62 mM [BE(2)-M17 cell viability: 79%−84%] was selected to induce inflammation for further experiments.

[7] = test system: CASP1; assay: Western blot CASP1 in MPP^+-stimulated HMC3 cells; format: cell-based, human; details: HMC3, 4 mM MPP^+ alone; untreated = 100%
Procedure: as §1

[8] = test system: caspase-1; assay: caspase-1 activity assay in MPP^+-treated BE(2)-M17 cells; format: cell-based, human; details: BE(2)-M17, 0.62 mM MPP^+ alone; untreated = 100%
Procedure: BE(2)-M17 cells were plated onto six-well (4 × 10^5/well) and treated with retinoic acid, LM compounds (10 μM), and MPP^+ as described. Cells were collected on day 7 and lysed by six freeze/thaw cycles. Types of substrates applied were: Ac-Tyr-Val-Ala-Asp-7-amino-4-trifluoromethyl coumarin (YVAD-AFC) for caspase-1, Ac-Val-Glu-Ile-Asp-7-amino-4-trifluoromethyl coumarin (VEID-AFC) for caspase-6 (BioVision, Milpitas, CA, USA), and Ac-Asp-Glu-Val-Asp-7-amido-4-methylcoumarin (DEVD-AMC) for caspase-3 (Sigma-Aldrich). The reaction mixtures were incubated for 1.5 h at 37°C per the manufacturer's instructions. The fluorescence intensity at 400 nm excitation and 505 nm emission (caspase-1 and caspase-6) or 360 nm excitation and 460 nm emission (caspase-3) wavelengths were recorded (BioTek FLx800).

EC50 [1]: 127 µM
Compound: Cc1ccc(/C=C/C(=O)c2c(O)c3ccccc3oc2=O)cc1 [LM-016]
NQO1 level [2]: 81–86%

Compound: CN(C)c1ccc(/C=C/C(=O)c2c(O)c3ccccc3oc2=O)cc1 [LM-021, (E)-3-(3-(4-(dimethylamino)phenyl)acryloyl)-4-hydroxy-2H-chromen-2-one]
EC50 [1]: 65 µM | p-CREB (Ser133) level [3]: 102–105% | BDNF level [4]: 109–110% | BCL2 level [5]: 99–110%

Compound: O=C(/C=C/c1ccccc1O)c1c(O)c2ccccc2oc1=O [LM-036]
NQO1 level [2]: 81–86% | p-CREB (Ser133) level [3]: 102–105% | BDNF level [4]: 109–110% | BCL2 level [5]: 99–110%

Compound: C[n+]1ccc(-c2ccccc2)cc1 [MPP^+, 1-methyl-4-phenyl pyridinium, reference compound]
cell viability [6]: 79%−84% and 80% | CASP1 expression [7]: 218% | caspase-1 activity [8]: 112%
